Measured values as given in publication PMC5451387, “Structural insights into the elevator-like mechanism of the sodium/citrate symporter CitS” (Scientific Reports, 2017).

Target: T1, KpCitS (Klebsiella pneumoniae, UniProt P31602)
T1 construct: gene citS; homodimer; TM7-TM8 loop not modelled
T1 sequence (P31602 1-446): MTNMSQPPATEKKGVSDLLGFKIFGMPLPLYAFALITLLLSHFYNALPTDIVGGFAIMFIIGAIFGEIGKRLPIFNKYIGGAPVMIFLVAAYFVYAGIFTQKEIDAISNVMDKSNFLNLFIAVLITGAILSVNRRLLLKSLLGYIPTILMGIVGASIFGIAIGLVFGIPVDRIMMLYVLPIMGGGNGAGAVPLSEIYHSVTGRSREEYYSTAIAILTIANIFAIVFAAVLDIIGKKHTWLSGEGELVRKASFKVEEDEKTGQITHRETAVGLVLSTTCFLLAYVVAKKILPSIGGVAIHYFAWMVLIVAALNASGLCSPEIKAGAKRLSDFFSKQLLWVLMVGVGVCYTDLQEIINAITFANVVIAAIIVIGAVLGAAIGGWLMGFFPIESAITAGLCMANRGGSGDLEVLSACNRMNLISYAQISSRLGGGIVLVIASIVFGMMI
Test: X-ray crystal structures, […]-4.[…] A
Assay type: binding
Details: sodium-containing buffer; bound at the transport-domain site in outward-facing and asymmetric forms; one citrate per protomer

O=C(O)CC(O)(CC(=O)O)C(=O)O [citrate]
X-ray crystal structures, 3.5-4.0 A: Each KpCitS protomer binds one molecule of citrate in the outward-facing and asymmetric conformations
